According to patent publication US12310364B2, “Safened compositions comprising pyridine carboxylate herbicides and cloquintocet” (Corteva Agriscience LLC, priority 2018, dated 2025):

Test system: Matricaria chamomilla (wild chamomile), MATCH
Assay: Greenhouse postemergence trial, visual injury on wild chamomile
Format: in vivo
Conditions: herbicide alone 20 g/ha
Method: Greenhouse Trial Methodology-Evaluation of Postemergence Herbicidal […] in Crops […] When required to ensure good germination and healthy plants, a fungicide treatment and/or other chemical or physical treatment was applied. The plants were grown for 7-36 days (d) in a greenhouse with an approximate 14-hour (h) photoperiod which was maintained at about 23° C. during the day and 22° C. during the night. Nutrients and water were added on a regular basis and supplemental lighting was provided with overhead metal halide 1000-Watt lamps as necessary. The plants were employed for testing when they reached the second or third true leaf stage. Emulsifiable concentrates of each of each pyridine carboxylate herbicide (Compound A or Compound B) were prepared at 100 grams acid equivalent per liter (g ae/L). […] The concentrated stock solutions were further diluted with an aqueous mixture of 1.25% […] or MSO® Concentrate with LECI-TECH® to obtain stock solutions at reduced application rates for each herbicide. Spray solutions of the herbicide combinations (Compound A or Compound B plus safener) were prepared by adding weighed amounts or aliquots of the safener to the stock solutions of Compound A or Compound B to form 12-mL spray solutions in two-way combinations. […] Control plants were sprayed in the same manner with the solvent blank. All herbicide (component a) application rates are given as “g ae/ha” and all safener (component b) application rates are given as “g ai/ha.” The treated plants and control plants were placed in a greenhouse as described above and watered by sub-irrigation to prevent wash-off of the test compounds.

N#CCOC(=O)c1nc(-c2ccc3cc[nH]c3c2F)c(F)c(N)c1Cl [Compound A, cyanomethyl 4-amino-3-chloro-5-fluoro-6-(7-fluoro-1H-indol-6-yl)pyridine-2-carboxylate]
% visual injury, Ob: 50%
